Laboratory results: publication PMC8016998, “Identification of potential therapeutic antimicrobial peptides against Acinetobacter baumannii in a mouse model of pneumonia” (Scientific Reports, 2021)
In brackets after ≈: the same amount, converted by molar mass. No end group written: not given here.

Columns and labels:
[1] = system: MDRAB clinical strain K2; format: cell-based, Acinetobacter baumannii; conditions: strain K2, 24 h 37 °C; for MIC: broth microdilution, LB; for MBC: subculture on LB agar
[2] = system: MDRAB clinical strain AL87; format: cell-based, Acinetobacter baumannii; conditions: strain AL87, 24 h 37 °C; for MIC: broth microdilution, LB; for MBC: subculture on LB agar
Procedure: (§1) MBC were determined by extending the MIC procedure in sterilized 96-well polypropylene microtiter plates according to the broth microdilution guidelines of the Clinical and Laboratory Standards Institute with some modification[47]. […] In addition, 10 µL was drawn from each well with no visible turbidity onto LB agar plates and incubated for 24 h at 37 °C. The lowest concentration showing no visible growth on agar subculture was used as the MBC value. All experiments were performed in triplicate.

[3] = system: MDRAB clinical strain AE6; format: cell-based, Acinetobacter baumannii; conditions: strain AE6, 24 h 37 °C; for MIC: broth microdilution, LB; for MBC: subculture on LB agar
Procedure: as §1

[4] = system: MDRAB clinical strains; format: cell-based, Acinetobacter baumannii; conditions: range over MDRAB clinical strains (details in Supplementary Table 2), 24 h 37 °C; for MBC: subculture on LB agar
Procedure: as §1

[5] = system: MDRAB clinical strain U80; format: cell-based, Acinetobacter baumannii; conditions: strain U80, 24 h 37 °C; for MIC: broth microdilution, LB; for MBC: subculture on LB agar
Procedure: as §1

[6] = system: MDRAB clinical strain AG51; format: cell-based, Acinetobacter baumannii; conditions: strain AG51, 24 h 37 °C; for MIC: broth microdilution, LB; for MBC: subculture on LB agar
Procedure: as §1

[7] = system: MDRAB clinical strain AN10; format: cell-based, Acinetobacter baumannii; conditions: strain AN10, 24 h 37 °C; for MIC: broth microdilution, LB; for MBC: subculture on LB agar
Procedure: as §1

[8] = system: MDRAB clinical strain AK61; format: cell-based, Acinetobacter baumannii; conditions: strain AK61, 24 h 37 °C; for MIC: broth microdilution, LB; for MBC: subculture on LB agar
[9] = system: MDRAB clinical strain O59; format: cell-based, Acinetobacter baumannii; conditions: strain O59, 24 h 37 °C; for MIC: broth microdilution, LB; for MBC: subculture on LB agar
[10] = system: Acinetobacter baumannii 17,978; format: cell-based; conditions: 24 h at 37 °C, triplicate; for MBC: 10 µL from wells without turbidity onto LB agar;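 for all read-outs here: CLSI broth microdilution in 96-well polypropylene plates, MBC taken as lowest concentration giving no growth when clear wells were subcultured on LB agar for 24 h at 37 °C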
Procedure: as §1

[11] = system: MDRAB clinical strain AZ93; format: cell-based, Acinetobacter baumannii; conditions: strain AZ93, 24 h 37 °C; for MIC: broth microdilution, LB; for MBC: subculture on LB agar
Procedure: as §1

[12] = system: MDRAB clinical strain AE5; format: cell-based, Acinetobacter baumannii; conditions: strain AE5, 24 h 37 °C; for MIC: broth microdilution, LB; for MBC: subculture on LB agar
[13] = system: MDRAB clinical strain AO80; format: cell-based, Acinetobacter baumannii; conditions: strain AO80, 24 h 37 °C; for MIC: broth microdilution, LB; for MBC: subculture on LB agar
[14] = system: MDRAB clinical strain AF93; format: cell-based, Acinetobacter baumannii; conditions: strain AF93, 24 h 37 °C; for MIC: broth microdilution, LB; for MBC: subculture on LB agar
[15] = system: MDRAB clinical strain J49; format: cell-based, Acinetobacter baumannii; conditions: strain J49, 24 h 37 °C; for MIC: broth microdilution, LB; for MBC: subculture on LB agar
[16] = system: Acinetobacter baumannii 19,606; format: cell-based; conditions: 24 h at 37 °C, triplicate
Procedure: as §1

[17] = system: MDRAB clinical strain AK29; format: cell-based, Acinetobacter baumannii; conditions: strain AK29, 24 h 37 °C; for MIC: broth microdilution, LB; for MBC: subculture on LB agar
[18] = system: MDRAB clinical strain Y92; format: cell-based, Acinetobacter baumannii; conditions: strain Y92, 24 h 37 °C; for MIC: broth microdilution, LB; for MBC: subculture on LB agar
[19] = system: MDRAB clinical strain D29; format: cell-based, Acinetobacter baumannii; conditions: strain D29, 24 h 37 °C; for MIC: broth microdilution, LB; for MBC: subculture on LB agar
Procedure: as §1

[20] = system: MDRAB clinical strain AF12; format: cell-based, Acinetobacter baumannii; conditions: strain AF12, 24 h 37 °C; for MIC: broth microdilution, LB; for MBC: subculture on LB agar
Procedure: as §1

[21] = system: MDRAB clinical strain AS40; format: cell-based, Acinetobacter baumannii; conditions: strain AS40, 24 h 37 °C; for MIC: broth microdilution, LB; for MBC: subculture on LB agar
Procedure: as §1

[22] = system: MDRAB clinical strain U95; format: cell-based, Acinetobacter baumannii; conditions: strain U95, 24 h 37 °C; for MIC: broth microdilution, LB; for MBC: subculture on LB agar
Procedure: as §1

[23] = system: MDRAB clinical strain AF11; format: cell-based, Acinetobacter baumannii; conditions: strain AF11, 24 h 37 °C; for MIC: broth microdilution, LB; for MBC: subculture on LB agar
Procedure: as §1

[24] = system: MDRAB clinical strain W11; format: cell-based, Acinetobacter baumannii; conditions: strain W11, 24 h 37 °C; for MIC: broth microdilution, LB; for MBC: subculture on LB agar
Procedure: as §1

[25] = system: MDRAB clinical strain L87; format: cell-based, Acinetobacter baumannii; conditions: strain L87, 24 h 37 °C; for MIC: broth microdilution, LB; for MBC: subculture on LB agar

## CC[C@H](C)[C@H](NC(=O)CNC(=O)[C@@H](NC(=O)[C@H](CCCCN)NC(=O)[C@H](CCCCN)NC(=O)[C@H](Cc1ccccc1)NC(=O)[C@H](CC(C)C)NC(=O)[C@H](CCCCN)NC(=O)[C@H](Cc1c[nH]c2ccccc12)NC(=O)[C@@H](N)CCCCN)[C@@H](C)CC)C(=O)NCC(=O)N[C@@H](C)C(=O)N[C@H](C(=O)N[C@@H](CC(C)C)C(=O)N[C@@H](CCCCN)C(=O)N[C@H](C(=O)N[C@@H](CC(C)C)C(=O)N[C@H](C(=O)N[C@H](C(=O)NCC(N)=O)[C@@H](C)O)[C@@H](C)O)C(C)C)C(C)C [CAME]
[1]
  MIC: 8 mg/L (≈ 3.64 µM)
  MBC: 16 mg/L (≈ 7.27 µM)
[2]
  MIC: 32 mg/L (≈ 14.5 µM)
  MBC: 32 mg/L (≈ 14.5 µM)
[3]
  MIC: 32 mg/L (≈ 14.5 µM)
  MBC: 32 mg/L (≈ 14.5 µM)
[4]; broth microdilution, LB
  MIC: 8 to 32 mg/L
[4]
  MBC: 8 to 64 mg/L
[5]
  MIC: 16 mg/L (≈ 7.27 µM)
  MBC: 32 mg/L (≈ 14.5 µM)
[6]
  MIC: 16 mg/L (≈ 7.27 µM)
  MBC: 32 mg/L (≈ 14.5 µM)
[7]
  MIC: 16 mg/L (≈ 7.27 µM)
  MBC: 32 mg/L (≈ 14.5 µM)
[8]
  MIC: 8 mg/L (≈ 3.64 µM)
  MBC: 16 mg/L (≈ 7.27 µM)
[9]
  MIC: 32 mg/L (≈ 14.5 µM)
  MBC: 64 mg/L (≈ 29.1 µM)
[10]
  MBC: 32 mg/L (≈ 14.5 µM)
[10]; broth microdilution (CLSI, modified), LB medium, 5 × 10^5 CFU/mL, lowest concentration with no visible growth
  MIC: 32 mg/L (≈ 14.5 µM)
[11]
  MIC: 8 mg/L (≈ 3.64 µM)
  MBC: 8 mg/L (≈ 3.64 µM)
[12]
  MIC: 32 mg/L (≈ 14.5 µM)
  MBC: 32 mg/L (≈ 14.5 µM)
[13]
  MIC: 8 mg/L (≈ 3.64 µM)
  MBC: 16 mg/L (≈ 7.27 µM)
[14]
  MIC: 32 mg/L (≈ 14.5 µM)
  MBC: 32 mg/L (≈ 14.5 µM)
[15]
  MIC: 16 mg/L (≈ 7.27 µM)
  MBC: 32 mg/L (≈ 14.5 µM)
[16]; 10 µL from wells without turbidity onto LB agar
  MBC: 32 mg/L (≈ 14.5 µM)
[16]; broth microdilution (CLSI, modified), LB medium, 5 × 10^5 CFU/mL
  MIC: 32 mg/L (≈ 14.5 µM)
[17]
  MIC: 8 mg/L (≈ 3.64 µM)
  MBC: 16 mg/L (≈ 7.27 µM)
[18]
  MIC: 32 mg/L (≈ 14.5 µM)
  MBC: 32 mg/L (≈ 14.5 µM)
[19]
  MIC: 32 mg/L (≈ 14.5 µM)
  MBC: 32 mg/L (≈ 14.5 µM)
[20]
  MIC: 16 mg/L (≈ 7.27 µM)
  MBC: 16 mg/L (≈ 7.27 µM)
[21]
  MIC: 8 mg/L (≈ 3.64 µM)
  MBC: 8 mg/L (≈ 3.64 µM)
[22]
  MIC: 32 mg/L (≈ 14.5 µM)
  MBC: 64 mg/L (≈ 29.1 µM)
[23]
  MIC: 16 mg/L (≈ 7.27 µM)
  MBC: 32 mg/L (≈ 14.5 µM)
[24]
  MIC: 16 mg/L (≈ 7.27 µM)
  MBC: 32 mg/L (≈ 14.5 µM)
[25]
  MIC: 32 mg/L (≈ 14.5 µM)
  MBC: 64 mg/L (≈ 29.1 µM)

## GLGSVFGRLARILGRVIPKV-NH2 [Pilosulin]
[1]
  MIC: 16 mg/L
  MBC: 32 mg/L
[2]
  MIC: 8 mg/L
  MBC: 8 mg/L
[3]
  MIC: 16 mg/L
  MBC: 16 mg/L
[4]
  MBC: 8 to 32 mg/L
[5]
  MIC: 16 mg/L
  MBC: 16 mg/L
[6]
  MIC: 8 mg/L
  MBC: 16 mg/L
[7]
  MIC: 8 mg/L
  MBC: 8 mg/L
[8]
  MIC: 16 mg/L
  MBC: 16 mg/L
[9]
  MIC: 16 mg/L
  MBC: 16 mg/L
[10]
  MBC: 32 mg/L
[11]
  MIC: 16 mg/L
  MBC: 16 mg/L
[12]
  MIC: 8 mg/L
  MBC: 16 mg/L
[13]
  MIC: 16 mg/L
  MBC: 32 mg/L
[14]
  MIC: 8 mg/L
  MBC: 8 mg/L
[15]
  MIC: 16 mg/L
  MBC: 16 mg/L
[17]
  MIC: 16 mg/L
  MBC: 16 mg/L
[18]
  MIC: 8 mg/L
  MBC: 8 mg/L
[19]
  MIC: 16 mg/L
  MBC: 32 mg/L
[20]
  MIC: 8 mg/L
  MBC: 16 mg/L
[21]
  MIC: 16 mg/L
  MBC: 16 mg/L
[22]
  MIC: 32 mg/L
  MBC: 32 mg/L
[23]
  MIC: 8 mg/L
  MBC: 16 mg/L
[24]
  MIC: 16 mg/L
  MBC: 16 mg/L
[25]
  MIC: 16 mg/L
  MBC: 16 mg/L
